Assay results published in patent US20240300899A1, “A QUINOLONE COMPOUND IN SOLID FORMS AND PROCESSES FOR THE PREPARATION THEREOF” (ZYDUS LIFESCIENCES LIMITED, priority 2021, published 2024).

Assays:
Assay type in all cases: physicochemical
[1] = Powder properties (bulk density, tapped density, angle of repose)
[2] = Hygroscopicity test as per EP general texts 5.11; conditions: 24-hour exposure over saturated ammonium chloride solution, 25±1° C., 80±2% relative humidity
Description: Hygroscopicity Data: The test for hygroscopicity was performed as per EP general texts 5.11 page no 565. The test was performed by calculating the difference in weights, after 24-hour upon expose over a saturated solution of ammonium chloride at 25±1° C. and 80±2% relative humidity.

[3] = Stability data on storage (HPLC purity, polymorphic form, impurity content)
Description: The crystalline form of compound of Formula (I) is characterized by X-ray powder diffraction (XRPD) pattern. In particular, the solid form of compound of Formula (I) is characterized by X-ray powder diffraction pattern obtained using CuKα1 radiation on a PANalytical X'Pert Pro or equivalent X-ray powder diffraction instrument. Particularly, the X-ray powder diffraction spectrum was measured under the following experimental conditions: The HPLC purity of the compound of Formula (I) was calculated using following method: Instrument Name: Waters Alliance e2695 HPLC system or equivalent [table] [table] [table]

[4] = 25° C. ± 2° C. and 60% ± 5% Relative Humidity, 1 month
[5] = 25° C. ± 2° C. and 60% ± 5% Relative Humidity, 15 days
[6] = 25° C. ± 2° C. and 60% ± 5% Relative Humidity, Initial
[7] = 30° C. ± 2° C. and 65% ± 5% Relative Humidity, 1 month
[8] = 30° C. ± 2° C. and 65% ± 5% Relative Humidity, 15 days
[9] = 30° C. ± 2° C. and 65% ± 5% Relative Humidity, Initial
[10] = 40° C. ± 2° C. and 75% ± 5 % Relative Humidity, 1 month
[11] = 40° C. ± 2° C. and 75% ± 5 % Relative Humidity, 15 days
[12] = 40° C. ± 2° C. and 75% ± 5 % Relative Humidity, Initial

Angle of Repose [1]: 30.6 °
Bulk Density [1]: 0.61 g/mL
Tapped Density [1]: 0.73 g/mL
Hygroscopicity result [2]: Non-hygroscopic
Increase in mass (hygroscopicity) [2]: less than 0.2%
Content of Compound of Formula D [3, 4]: 0.04%
HPLC Purity [3, 4]: 99.91%
Polymorphic form [3, 4]: Unchanged
Content of Compound of Formula D [3, 5]: 0.05%
HPLC Purity [3, 5]: 99.87%
Polymorphic form [3, 5]: Unchanged
Content of Compound of Formula D [3, 6]: 0.04%
HPLC Purity [3, 6]: 99.9%
Content of Compound of Formula D [3, 7]: 0.04%
HPLC Purity [3, 7]: 99.91%
Polymorphic form [3, 7]: Unchanged
Content of Compound of Formula D [3, 8]: 0.05%
HPLC Purity [3, 8]: 99.83%
Polymorphic form [3, 8]: Unchanged
Content of Compound of Formula D [3, 9]: 0.04%
HPLC Purity [3, 9]: 99.9%
Content of Compound of Formula D [3, 10]: 0.04%
HPLC Purity [3, 10]: 99.92%
Polymorphic form [3, 10]: Unchanged
Content of Compound of Formula D [3, 11]: 0.05%
HPLC Purity [3, 11]: 99.85%
Polymorphic form [3, 11]: Unchanged
Content of Compound of Formula D [3, 12]: 0.04%
HPLC Purity [3, 12]: 99.9%
Structure (SMILES): O=C(O)CNC(=O)c1c(O)c2ccccc2n(OCC2CC2)c1=O [Example-1, (1-(cyclopropylmethoxy)-4-hydroxy-2-oxo-1,2-dihydroquinoline-3-carbonyl) glycine]
